Experimental data taken from ChEMBL document CHEMBL3585340, “Potent Apoptotic Response Induced by Chloroacetamidine Anthrathiophenediones in Bladder Cancer Cells” (J Med Chem, 2015).
The source made the active and inactive calls. No cut-off for these calls is given here.

Tests used:
[1] = Cellular uptake in human T24 cells at 1 to 5 uM after 4 hrs by FACS analysis; type: ADME, cell-based; conditions: t-24, 4 h
T-24 [2] = experiment: Induction of apoptosis in human T24 cells assessed as PARP-1 cleavage at 2.5 uM measured at 48 hrs by Western blot analysis relative to control; type: functional
[3] = Cell cycle arrest in human T24 cells assessed as accumulation at G2 phase at 5 uM after 48 to 72 hrs by propidium iodide staining-based FACS analysis; type: functional; conditions: T-24
[4] = Cytotoxicity against human T24 cells harboring HRAS mutant assessed as reduction of metabolic activity after 72 hrs by resazurin assay; type: functional, cell-based; conditions: T-24, 72 h
HEK293 = experiment: Cytotoxicity against HEK293 cells harboring wild type HRAS assessed as reduction of metabolic activity after 72 hrs by resazurin assay; type: cell-based; conditions: Homo sapiens, HEK293, 72 h
[5] = Downregulation of p21RAS protein level in human T24 cells at 5 uM after 48 hrs by Western blot analysis; type: functional, cell-based; conditions: T-24
T-24 [6] = experiment: Induction of apoptosis in human T24 cells at 2.5 uM after 24 hrs by annexin V-FITC/propidium iodide staining-based FACS analysis (13 +/- 5%); type: functional
T-24 [7] = experiment: Inhibition of HRAS mRNA expression in human T24 cells at 5 uM after 6 to 24 hrs by RT-qPCR analysis; type: functional, cell-based
T-24 [8] = experiment: Induction of apoptosis in human T24 cells assessed as activation of caspase 3/7 at 2.5 to 5 uM measured after 18 to 24 hrs by Apo-ONE assay relative to control; type: functional
T-24 [9] = experiment: Cytotoxicity against human T24 cells assessed as reduction of colony formation at 1 uM after 7 days by methylene blue staining-based assay; type: functional, cell-based
T-24 [10] = experiment: Induction of reactive oxygen species generation in human T24 cells at 1 to 5 uM after 24 hrs relative to control; type: functional, cell-based
T-24 [11] = experiment: Inhibition of HRAS mRNA expression in human T24 cells assessed as remaining mRNA level at 5 uM after 24 hrs by RT-qPCR analysis relative to beta2-microglobulin mRNA expression; type: functional
[12] = Binding affinity to 5' FAM/3' TAMRA labeled HRAS1 G-quadruplex DNA (unknown origin) assessed as change in melting temperature by FRET analysis
[13] = Cellular uptake in human T24 cells at 5 uM at 37 degC after 4 hrs by FACS analysis; type: ADME, cell-based; conditions: t-24, 4 h
[14] = Cellular uptake in human T24 cells at 5 uM after 4 hrs by FACS analysis in presence of dynasore; type: ADME, cell-based; conditions: t-24, 4 h
[15] = Binding affinity to 5' FAM/3' TAMRA labeled HRAS2 G-quadruplex DNA (unknown origin) assessed as change in melting temperature by FRET analysis
[16] = Downregulation of p21RAS protein level in human T24 cells assessed as remaining protein level at 5 uM after 48 hrs by Western blot analysis relative to beta-actin protein expression; type: functional, cell-based; conditions: T-24
[17] = Binding affinity to 5' FAM/3' TAMRA labeled HRAS2 G-quadruplex DNA (unknown origin) assessed as change in melting temperature at 5 equiv of compound by FRET analysis in presence of 10 fold excess duplex DNA (reference value: 68.1 degreeC)
[18] = Cell cycle arrest in human T24 cells assessed as accumulation at G1 phase at 5 uM after 48 hrs by propidium iodide staining-based FACS analysis (reference value: 52.4%); type: functional; conditions: T-24
[19] = Downregulation of cyclin D1 level in human T24 cells assessed as remaining protein level at 2.5 uM after 48 hrs by Western blot analysis; type: functional, cell-based; conditions: T-24
[20] = Cellular uptake in cytoplasm of human T24 cells at 5 uM after 4 hrs by confocal microscopic analysis; type: ADME, cell-based; conditions: t-24, 4 h
T-24 [21] = experiment: Inhibition of HRAS mRNA expression in human T24 cells assessed as remaining mRNA level at 5 uM after 6 hrs by RT-qPCR analysis relative to beta2-microglobulin mRNA expression; type: functional
[22] = Binding affinity to 5' FAM/3' TAMRA labeled HRAS1 G-quadruplex DNA (unknown origin) by FRET analysis
[23] = Binding affinity to 5' FAM/3' TAMRA labeled HRAS2 G-quadruplex DNA (unknown origin) by FRET analysis
[24] = Cell cycle arrest in human T24 cells assessed as accumulation at G2 phase at 5 uM after 48 hrs by propidium iodide staining-based FACS analysis (reference value: 18.5%); type: functional; conditions: T-24
[25] = Cell cycle arrest in human T24 cells assessed as accumulation at G2 phase at 5 uM measured at 72 hrs by propidium iodide staining-based FACS analysis (reference value: 17.7%); type: functional; conditions: T-24
[26] = Cellular uptake in human T24 cells at 5 uM at 4 degC after 4 hrs by FACS analysis; type: ADME, cell-based; conditions: t-24, 4 h
[27] = Cellular uptake in nucleus of human T24 cells at 5 uM after 4 hrs by confocal microscopic analysis; type: ADME, cell-based; conditions: t-24, 4 h
[28] = Binding affinity to 5' FAM/3' TAMRA labeled HRAS2 G-quadruplex DNA (unknown origin) assessed as change in melting temperature at 5 equiv of compound (r = 5) by FRET analysis (reference value: 68.1 degreeC)
[29] = Cellular uptake in human T24 cells at 5 uM after 4 hrs by FACS analysis relative to HEK293 cells; type: ADME, cell-based; conditions: hek293, 4 h
[30] = Antitumor activity against human T24 cells xenografted in nude mouse assessed as increase in mouse median survival day at 1.7 mg/kg administered intratumorally on day 1, 8, 15, 22 relative to control; type: functional, T-24
T-24 [31] = experiment: Binding affinity to wild type HRAS G-quadruplex DNA (unknown origin) transfected in human T24 cells assessed as remaining expression ratio of firefly luciferase to renila luciferase reporter gene at 100 to 200 nM pretreated with cells followed by transfection measured after 48 hrs; type: cell-based
[32] = Binding affinity to 5' FAM/3' TAMRA labeled HRAS2 G-quadruplex DNA (unknown origin) assessed as change in melting temperature at 10 equiv of compound by FRET analysis (reference value: 67.2 degreeC)
[33] = Antitumor activity against human T24 cells xenografted in nude mouse assessed as mouse median survival day at 1.7 mg/kg administered intratumorally on day 1, 8, 15, 22 (reference value: 32 days); type: functional, T-24
T-24 [34] = experiment: Binding affinity to mutant HRAS Mut-B plasmid (unknown origin) transfected in human T24 cells at 100 to 200 nM pretreated with cells followed by transfection measured after 48 hrs by dual luciferase reporter gene assay; type: cell-based
T-24 [35] = experiment: Binding affinity to mutant HRAS Mut-A plasmid (unknown origin) transfected in human T24 cells at 100 to 200 nM pretreated with cells followed by transfection measured after 48 hrs by dual luciferase reporter gene assay; type: cell-based
[36] = Downregulation of p21RAS protein level in human T24 cells assessed as remaining protein level at 2.5 to 5 uM after 48 hrs by Western blot analysis relative to beta-actin protein expression; type: functional, cell-based; conditions: T-24
T-24 [37] = experiment: Antitumor activity against human T24 cells xenografted in nude mouse assessed as tumor growth inhibition at 1.7 mg/kg administered intratumorally on day 1, 8, 15, 22 measured every 2 to 3 days up to 44 days; type: functional, organism-based

| Structure (SMILES) | Drug uptake [1] | ΔTm [12] | Drug uptake [13] | ΔTm [15] | Drug uptake [20] | Kd [22] | Kd [23] | Drug uptake [26] | Drug uptake [27] | fold change (FC) [29] | Activity (T-24 [2]) | IC50 [4] | IC50 (HEK293) | Activity (T-24 [6]) | Activity (T-24 [9]) | other results |
| --- | --- | --- | --- | --- | --- | --- | --- | --- | --- | --- | --- | --- | --- | --- | --- | --- |
| N=C(N)NCCNc1c2c(c(NCCNC(=N)N)c3sccc13)C(=O)c1ccccc1C2=O | Active | – | – | – | – | – | – | – | – | – | inactive | 4.4 µM | > 30 µM | 13% | inactive | Activity [3]: inactive; Activity [5]: Active; inhibition (T-24 [7]): inactive; Activity (T-24 [8]): inactive |
| N=C(CCl)NCCCCNc1c2c(c(NCCCCNC(=N)CCl)c3sccc13)C(=O)c1ccccc1C2=O | Active | 9 °C | – | 7 °C | Active | 0.231 µM | 0.215 µM | – | Active | 2 | – | 11.5 µM | > 30 µM | – | – | – |
| N=C(N)NCCCCNc1c2c(c(NCCCCNC(=N)N)c3sccc13)C(=O)c1ccccc1C2=O | Active | – | – | – | – | – | – | – | – | – | inactive | – | > 30 µM | 13% | inactive | Activity [3]: inactive; Activity [5]: Active; inhibition (T-24 [7]): inactive |
| N=C(CCl)NCCNc1c2c(c(NCCNC(=N)CCl)c3sccc13)C(=O)c1ccccc1C2=O | Active | 9 °C | Active | 7 °C | Active | 0.611 µM | 0.317 µM | Not Active | Active | 2 | 80% | 2.7 µM | 6.4 µM | 88% | Active | Activity (T-24 [10]): inactive; Activity [30]: 70%; Activity (T-24 [11]): 34%; Activity (T-24 [31]): 40%; Drug uptake [14]: Not Active; Tm [32]: 78.5 °C; MSD [33]: 54 days; Activity (T-24 [34]): inactive; Tm [17]: 75.6 °C; Activity [18]: 12.2%; Activity (T-24 [35]): inactive; Activity [19]: < 10%; Activity [36]: < 4%; Activity (T-24 [21]): 35%; Activity [24]: 72.2%; Activity [25]: 44.7%; TGI (T-24 [37]): Active; fold change (FC) (T-24 [8]): 15; Tm [28]: 75.6 °C |

The next lines start with results.

| Drug uptake [1] | ΔTm [12] | Drug uptake [13] | ΔTm [15] | Drug uptake [20] | Kd [22] | Kd [23] | Drug uptake [26] | Drug uptake [27] | fold change (FC) [29] | Structure (SMILES) | Activity (T-24 [2]) | IC50 [4] | IC50 (HEK293) | Activity (T-24 [6]) | Activity (T-24 [9]) | other results |
| --- | --- | --- | --- | --- | --- | --- | --- | --- | --- | --- | --- | --- | --- | --- | --- | --- |
| Active | 9 °C | Active | 7 °C | Active | 0.178 µM | 0.168 µM | Not Active | Active | 2 | N=C(CCl)NCCCNc1c2c(c(NCCNC(=N)CCl)c3sccc13)C(=O)c1ccccc1C2=O | 80% | 3 µM | 12.6 µM | 81% | Active | Activity (T-24 [10]): inactive; Activity (T-24 [11]): 24%; Drug uptake [14]: Not Active; Activity [16]: 40%; Tm [17]: 75.8 °C; Activity [18]: 28.9%; Activity [19]: < 10%; Activity (T-24 [21]): 45%; Activity [24]: 66%; Activity [25]: 83%; fold change (FC) (T-24 [8]): 15; Tm [28]: 75.8 °C |
| Active | 9 °C | Active | 7 °C | Active | 0.179 µM | 0.221 µM | Not Active | Active | 2 | N=C(CCl)NCCCNc1c2c(c(NCCNC(=N)CCl)c3ccsc13)C(=O)c1ccccc1C2=O | – | 2.9 µM | 10.1 µM | – | – | – |
| Active | 9 °C | – | 7 °C | Active | 0.26 µM | 0.276 µM | – | Active | 2 | N=C(CCl)NCCCNc1c2c(c(NCCCNC(=N)CCl)c3sccc13)C(=O)c1ccccc1C2=O | – | 6.8 µM | 19.4 µM | – | – | – |
